Test results reported in US20250387379A1, “ARYL-ANILINE AND HETEROARYL-ANILINE COMPOUNDS FOR TREATMENT OF SKIN CANCERS” (NFLECTION THERAPEUTICS, INC., priority 2018, published 2025).

biological target: MAP2K1 (MEK1) (Homo sapiens (Human), UniProt Q02750); experiment: MEK Inhibition Assay-2 (Z'-LYTE biochemical assay; Example 5); settings: Table 6, Z'-LYTE procedure of Example 5; read-out: IC50 against MEK1
Experimental: MEK1 inhibitory activity of compounds were tested using the following procedure (protocol available at thermofisher.com/content/dam/LifeTech/migration/files/drug-discovery/pdfs.par.60256.file.dat/20130430%20ssbk%20customer%20protocol%20and%20assay%20conditions.pdf). The Z′-LYTE biochemical assay (ThermoFisher) employs a fluorescence-based, coupled-enzyme format and is based on the differential sensitivity of phosphorylated and non-phosphorylated peptides to proteolytic cleavage.
Test compounds in 100% DMSO were screened in 1% DMSO (final) in the well. For 10 point titrations, 3-fold serial dilutions are conducted from the starting concentration of 30 μM.
After the 1 hour incubation, 5 μL of a 1:1024 dilution of Development Reagent A (available from Invitrogen, catalog no. PV3295) was added.
ATP solutions were diluted to a 4× working concentration in Kinase Buffer (50 mM HEPES pH 7.5, 0.01% BRIJ-35, 10 mM MgCl2, 1 mM EGTA). ATP Km apparent was previously determined using a Z′-LYTE assay. The Development Reagent was diluted in Development Buffer (available from Invitrogen, catalog no. P3127).
Assay Protocol: 2.5 μL of 4× test compound or 100 nL of 100× Test Compound plus 2.4 μL Kinase Buffer, 5 μL of the 2× Peptide/Kinase Mixture, 2.5 μL of 4×ATP Solution were added to the plates and placed on a shake plate for 30-seconds. The kinase reaction was allowed to proceed for 60-minute at room temperature, before 5 μL of Development Reagent Solution was added, and the mixture agitated for 30-seconds on a shake plate. The mixture was incubated for 60-minute at room temperature. Fluorescence was measured using a plate reader and the data were analyzed.
This control yielded 100% cleaved peptide in the Development Reaction. The 100% Phosphorylation Control, which consisted of a synthetically phosphorylated peptide of the same sequence as the peptide substrate, was designed to allow for the calculation of percent phosphorylation. This control yielded a very low percentage of cleaved peptide in the Development Reaction. The 0% Phosphorylation and 100% Phosphorylation Controls allow for the calculation of the percent phosphorylation achieved in a specific reaction well.
The minimum emission ratio in a screen was established by the 0% Inhibition Control, which contained active kinase. This control was designed to produce a 10-50% phosphorylated peptide in the Kinase Reaction. Cascade assays may produce up to 70% phosphorylated peptide.
A known inhibitor control standard curve, 10 point titration, was run for each individual kinase on the same plate as the kinase to ensure the kinase was inhibited within an expected IC50 range previously determined.
The following controls are prepared for each concentration of Test Compound assayed. […] The expected value for a non-interfering compound should be 100%. Any value outside of 90% to 110% was flagged. […] The expected value for a non-fluorescence compound should be 0%. Any value >20% was flagged.
The data in Table A was calculated. XLfit from IDBS was used. The dose response curve was curve fit to model number 205 (sigmoidal dose-response model).

Chain of MAP2K1 (MEK1) (Q02750 whole entry): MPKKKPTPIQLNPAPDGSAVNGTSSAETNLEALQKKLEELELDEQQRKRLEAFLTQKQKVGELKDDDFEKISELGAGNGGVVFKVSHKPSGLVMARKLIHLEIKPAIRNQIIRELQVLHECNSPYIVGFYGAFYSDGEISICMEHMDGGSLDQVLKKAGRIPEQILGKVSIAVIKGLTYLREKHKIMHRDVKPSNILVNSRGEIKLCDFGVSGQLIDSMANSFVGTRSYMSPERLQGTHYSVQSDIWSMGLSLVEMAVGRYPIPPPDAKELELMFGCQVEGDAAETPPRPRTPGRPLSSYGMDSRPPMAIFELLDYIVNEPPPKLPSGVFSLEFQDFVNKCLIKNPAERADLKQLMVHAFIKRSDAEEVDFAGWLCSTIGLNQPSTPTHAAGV

| SMILES | IC50 [nM] |
| --- | --- |
| O=c1c2c(Nc3ccc(I)cc3F)cncc2ccn1C[C@H](O)CO [Compound 5.002] | ≤ 150 |
| O=C1CCCc2c1sc(Nc1ccc(I)cc1F)c2C(=O)NOCCO [Compound 4.029] | ≤ 150 |
| O=C(O)Cn1ccc2cncc(Nc3ccc(I)cc3F)c2c1=O [Compound 5.004] | > 1500 |
| COC(=O)Cn1ccc2cncc(Nc3ccc(I)cc3F)c2c1=O [Compound 5.005] | > 1500 |
| N#Cc1ccc(C(=O)NOCCO)c(Nc2ccc(I)cc2F)c1F [Compound 1.030] | ≤ 150 |
| O=C1CCCc2c1sc(Nc1ccc(I)cc1F)c2C(=O)NOC[C@H](O)CO [Compound 4.030] | ≤ 150 |
| N#Cc1ccc(C(=O)N2CC(O)C2)c(Nc2ccc(I)cc2F)c1 [Compound 1.002] | > 1500 |
| O=C1CCCc2c1sc(Nc1ccc(I)cc1F)c2C(=O)NC[C@H](O)CO [Compound 4.034] | ≤ 150 |
| O=C1CCCc2c1sc(Nc1ccc(I)cc1F)c2C(=O)NC[C@@H](O)CO [Compound 4.035] | ≤ 150 |

Continued, values first:

| IC50 [nM] | SMILES |
| --- | --- |
| ≤ 150 | N#Cc1ccc(C(=O)NO)c(Nc2ccc(I)cc2F)c1 [Compound 1.017] |
| ≤ 150 | N#Cc1ccc(C(=O)NOCC2CC2)c(Nc2ccc(I)cc2F)c1F [Compound 1.031] |
| > 1500 | COC(=O)CCONC(=O)c1ccc(C#N)cc1Nc1ccc(I)cc1F [Compound 1.022] |
| ≤ 150 | O=c1c2c(Nc3ccc(I)cc3F)cncc2ccn1C[C@@H](O)CO [Compound 5.001] |
| ≤ 150 | NCCONC(=O)c1c(Nc2ccc(I)cc2F)sc2c1CCCC2=O [Compound 4.033] |
| ≤ 150 | N#Cc1ccc(C(=O)NOCCO)c(Nc2ccc(I)cc2F)c1 [Compound 1.010] |
| ≤ 150 | O=C1CCCc2c1sc(Nc1ccc(I)cc1F)c2C(=O)NOCC1CC1 [Compound 4.032] |

test system: skin tumors; experiment: not given; settings: oral; trametinib 2 mg/kg/day, cobimetinib 10 mg/kg/day; chronic, low-dose, solar simulated UV light; cited from earlier work

| SMILES | reduction of skin tumors |
| --- | --- |
| CC(=O)Nc1cccc(-n2c(=O)n(C3CC3)c(=O)c3c(Nc4ccc(I)cc4F)n(C)c(=O)c(C)c32)c1 [trametinib] | effective in reducing skin tumors |
| O=C(c1ccc(F)c(F)c1Nc1ccc(I)cc1F)N1CC(O)([C@@H]2CCCCN2)C1 [cobimetinib] | effective in reducing skin tumors |

test system: not given; experiment: not given; settings: topical application; cited from earlier work

| SMILES | patients who experienced at least 1 adverse event ranging from mild to severe |
| --- | --- |
| CC(C)Cn1cnc2c(N)nc3ccccc3c21 [imiquimod, Imiquimod] | Up to 100% |
| O=c1[nH]cc(F)c(=O)[nH]1 [5-fluorouracil] | ≤ 97% |

test system: cutaneous squamous-cell carcinoma tumors; experiment: not given; settings: topical delivery

| SMILES | body weight loss of treated mice |
| --- | --- |
| Cn1c(Nc2ccc(I)cc2F)c(C(=O)NOCCO)c2cccnc21 [Compound 2.003] | none of the mice lost weight |

same assay, conditions: topical gel 0.01%, 0.15%, 0.5% by weight, 30 day course of treatment, first 12 mice

| SMILES | tumor formation versus topical vehicle (placebo) |
| --- | --- |
| Cn1c(Nc2ccc(I)cc2F)c(C(=O)NOCCO)c2cccnc21 [Compound 2.003] | mice treated with the topical vehicle (placebo) formed substantially more tumors than those treated with Compound 2.003 at all concentrations |

same assay, conditions: topical gel 0.5%, 0.15%, 0.01%, FIG. 5

| SMILES | tumor induction (new tumors per mouse) |
| --- | --- |
| Cn1c(Nc2ccc(I)cc2F)c(C(=O)NOCCO)c2cccnc21 [Compound 2.003] | completely suppress tumor induction |

same assay, conditions: topical gel 0.5%, 0.15%, 0.01%, FIG. 6

| SMILES | size of existing tumors (tumor volume per mouse) |
| --- | --- |
| Cn1c(Nc2ccc(I)cc2F)c(C(=O)NOCCO)c2cccnc21 [Compound 2.003] | reduce the size of existing tumors |
